How the values were obtained:
[1] = tested on: HIV-1 clinical isolates; assay: Anti-HIV efficacy in fresh human PBMC (all isolates, summary); type: cell-based; conditions: Human immunodeficiency virus 1, PBMC; eight HIV-1 clinical isolates in PBMCs
[2] = tested on: HIV-1 (R5 JR-CSF); assay: Antiviral effect of PD before, during and after HIV-1 exposure (TZM-bl); type: cell-based
[3] = tested on: HIV-1 92UG005; assay: HIV infectivity assay in TZM-bl cells; type: cell-based; conditions: 92UG005 (clade D, R5); for IC50: Human immunodeficiency virus 1, TZM-bl
[4] = tested on: HCVcc; assay: HCVcc cell attachment assay; type: cell-based, HCV; conditions: 300 μM PD, 37° C., 90 min; cell-bound viral RNA by qRT-PCR
[5] = tested on: pseudotyped NL4.3 Env-eGFP/gp160 Env virus; assay: HIV-1 cell-to-cell transfer assay (DC to Jurkat T cells); type: cell-based; conditions: 10 μM PD added to DC 2 h after virus, washed after 2 h
[6] = Compound cytotoxicity in uninfected PBMC (MTS assay); conditions: human
[7] = tested on: freshly activated human PBMC; assay: as above; conditions: freshly activated PBMCs, uninfected plates, MTS assay, 7 days
[8] = tested on: VSV-Gpp; type: cell-based, HIV lentivirus pseudotyped with VSV-G
[9] = tested on: primary isolates of HIV and SIV; assay: organism not typed; type: cell-based, HIV-1, HIV-2
[10] = tested on: SIVsyk1.2; assay: SIV infectivity assay in TZM-bl cells; type: cell-based; conditions: Simian immunodeficiency virus, first value cell of the line (cells shifted; presumably DMEM)

For `N=C1Sc2ccccc2C2=NCCCN12` [PD, PD 404,182], the IC50 [1] was 550 nM, the “antiviral effect, PD added after virus inoculation” value ([2]; 10 μM PD, 1, 2, 4 and 8 h post treatment) was “loses its antiviral effect” and the “antiviral effect, extended preincubation of PD with cells” value ([2]; 10 μM PD, >16 h prior to virus inoculation) was “significantly reduces the compound's antiviral efficacy”. The “antiviral effect, PD added together with the virus” value ([2]; 10 μM PD, time zero) was “significantly inhibits HIV-1 infection”, the “antiviral effect, PD added before the virus” value ([2]; 10 μM PD, up to 8 h before the addition of the virus) was “retains its full potency” and the “time antiviral activity is retained in cell culture prior to the addition of HIV-1” value ([2]; cell culture at 37° C.) was “at least 8 hours”. The “IC50 (DMEM; IC90 per footnote)” value ([3]; PD in DMEM + 10% FBS) was 5300 ± 400 nM, the “IC50 (Cervical Fluid; IC90 per footnote)” value ([3]; PD in cervical fluids) was 5700 ± 300 nM and the “IC50 (Seminal Plasma; IC90 per footnote)” value ([3]; PD in seminal plasma) was 5570 ± 440 nM. The IC50 ([3]; PD in DMEM + 10% FBS) was 1260 nM, the IC50 ([3]; PD in cervical fluids) was 1390 nM and the IC50 ([3]; PD in seminal plasma) was 1320 nM. The “attachment of PD-treated HCVcc to cells” value [4] was “binds to cells comparably to control DMSO-treated virus”, the “DC-mediated transmission of HIV-1 to T cells” value [5] was “prevents subsequent T cell infection with the pseudotyped virus” and the cytotoxicity at 7 days, 200 μM [6] was 48%. For the same compound, the CC50 at 7 days ([6]; CC50, freshly activated PBMCs, uninfected plates, MTS assay, 7 days) was ~200000 nM, the CC50 [7] was > 200000 nM and the VSV-Gpp infectivity remaining [8] was 0.1%. The “effect of fetal bovine serum on PD's antiviral activity” value [8] was “no inhibitory effect”, the “inhibition of VSV-Gpp supernatant infectivity relative to DMSO-treated virus” value [8] was ~1000 fold and the “sensitivity of virus to PD in conditioned medium” value [8] was “significantly less sensitive to inactivation by PD”. For the same compound, the “effect of seminal plasma on PD's anti-HIV activity” value [9] was “does not negatively impact PD's anti-HIV activity”, the IC50 ([9]; Human immunodeficiency virus 1, TZM-bl, read-out: IC50 range over tested subtypes of HIV-1) was 420 to 1960 nM and the IC90 ([9]; Human immunodeficiency virus 1, TZM-bl, read-out: IC90 range over tested subtypes of HIV-1) was 1580 to 7190 nM. For the same compound, the IC50 ([9]; TZM-bl) was ~1000 nM, the IC50 ([9]; TZM-bl, read-out: IC50 range) was 330 to 1800 nM and the IC90 ([9]; TZM-bl, read-out: IC90 range) was 1400 to 6600 nM. For the same compound, the IC50 ([9]; read-out: IC50 range) was 610 to 2300 nM, the IC90 ([9]; read-out: IC90 range) was 1800 to 7500 nM and the IC50 [10] was 1900 nM.

— patent US20140227335A1 (priority 2012, published 2014)
